Drawing on US20250115612A1, “CERTAIN 2,5-DIAZABICYCLO[4.2.0]OCTANES AND OCTAHYDROFURO[3,4-B]PYRAZINES AS GLP-1 RECEPTOR MODULATORS” (ASTRAZENECA AB, priority 2021, published 2025), this text covers EC50 for 13 compounds.

In one assay the target is T1, GLP-1R (Homo sapiens, UniProt P43220).
T1 construct: host or cells: EndoC-βH1
Kind of assay: EndoC cAMP accumulation assay (HTRF, EndoC-βH1 cells). The note with it: EndoC-βH1 human pancreatic β cell line. The format is cell-based. An excerpt:
EndoC cAMP Accumulation Assay
A HTRF cAMP assay (cAMP Gs dynamic kit; CisoBio Cat #62AM4PEJ) was used to identify agonists of GLP-1R in a pancreatic insulinoma cell line (EndoC-PH1). […] EndoC-βH1 cells have detectable GLP-1R messenger ribonucleic acid (mRNA) as detected by quantitative polymerase chain reaction (qPCR). […] The EndoC-βH1 cell line is a valid model of human beta cells and applicable for screenings to identify novel drug target candidates (Mol. Metab., 2018, 8, 144-157). CisBio HTRF cAMP kits are based on a competitive immunoassay using cryptate-labelled anti-cAMP antibody and d2-labeled cAMP. The detection kit is intended for the direct quantitative determination of cAMP. The specific signal (i.e. energy transfer) is inversely proportional to the concentration of cAMP in the standard or sample. Test compounds (10 mM in DMSO) were diluted into assay buffer (HBSS (Sigma #H8264) supplemented with 25 mM HEPES (Gibco #15630, pH 7.4), 0.1% BSA (Sigma #A3059) and 0.5 mM IBMX (Sigma #I7018) included fresh on the day of the assay) into 96 well U-bottom plates (Greiner #650201). Diluted compounds were transferred to ECHO source polypropelene plates (Labcyte #P-05525) and dose response curves were dispensed acoustically using ECHO 550 into black shallow-well u-bottom 384-well HTRF Assay Plates (Corning 4514).
Cryovials of EndoC-H1 (supplied at 1×10e^7 cells/vial) were used directly for screening. The cryovials and were removed from N2(l) and thawed rapidly in a 37° C. water bath. The cells were resuspended in assay buffer and centrifuged at 300 g for 5 min. Cells were resuspended in assay buffer at the appropriate concentration, typically at 12e5 cells per mL (3000 cells per well, dependent on cell batch) and 2.5 μL diluted cells were added to all wells of destination plate by Multidrop combi reagent dispenser (Thermofisher). The plates were incubated at rt for 30 min. The assay was stopped by adding 2.5 μL anti-cAMP cryptate solution to all wells and 2.5 μL cAMP-d2 solution (both diluted 1:20 in lysis buffer) to columns 1-22 by Combi drop. A volume of 2.5 μL cAMP-d2 solution was added to wells E23 to P24 and 2.5 μL lysis buffer added to wells A23 to D24 by multichannel pipette. The plates were incubated at rt for 1 h and read on an Envision plate reader using excitation wavelength of 320 nm and emission of 590 nm and 660 nm.
Raw data from Envision is converted to % DeltaF according to the manufacturer's instructions. Dose response curves are analysed via 4-Parameter Logistical Analysis and assay plate Z′ values obtained. Samples are graphed as percentage (%) activation plots compared to GIP (1-42, Bachem H-5645) with assay window defined by negative control as basal cell cAMP levels and positive control are defined by maximum GIP (82.5 nM) signal. GLP-1 (7-36 amide, Bachem H-6795) dose response curve was included on all plates.
On the technique in general: cAMP levels reflect the balance of adenylyl cyclase and phosphodiesterase activity.

The target of another assay is T2, human GLP-1R receptor (Homo sapiens, UniProt P43220, L260F).
T2 construct: expressed in transfected cells; host or cells: CHO-K1 (ATCC CCL-61)
T2 sequence (P43220 24-463 L260F): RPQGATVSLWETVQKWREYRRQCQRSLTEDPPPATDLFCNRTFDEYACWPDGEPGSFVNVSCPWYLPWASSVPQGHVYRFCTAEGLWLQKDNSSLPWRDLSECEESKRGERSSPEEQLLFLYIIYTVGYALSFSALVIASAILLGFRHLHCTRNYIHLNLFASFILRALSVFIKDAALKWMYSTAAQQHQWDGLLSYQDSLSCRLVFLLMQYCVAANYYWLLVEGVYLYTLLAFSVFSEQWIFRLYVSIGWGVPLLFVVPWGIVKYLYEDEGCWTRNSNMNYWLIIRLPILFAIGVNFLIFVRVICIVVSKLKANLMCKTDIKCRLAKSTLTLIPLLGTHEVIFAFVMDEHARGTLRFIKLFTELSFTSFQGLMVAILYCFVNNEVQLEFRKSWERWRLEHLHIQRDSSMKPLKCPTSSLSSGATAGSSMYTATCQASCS
Kind of assay: CHOK1 GLP-1R cAMP assay (HTRF). The format is cell-based. To be noted: CHO-K1 cells stably expressing human GLP-1R. Here is the method: A cell line stably expressing the human GLP-1R receptor (NM_002062.5, including the naturally-occurring variant Leu260Phe) in a CHO-K1 (ATCC® CCL-61™) was used for assay.
GLP-1 receptor mediated agonist activity was determined in a cell-based assay measuring cyclic adenosine monophosphate (cAMP) levels in cells using Homogeneous Time-Resolved Fluorescence (HTRF) cAMP detection kit (CisBio catalog #62AM4PEC, cAMP Gs Dynamic range kit). The cAMP detection method is based on a competitive immunoassay, in which cAMP produced by the cells and cAMP labeled with the dye d2 compete for binding to a Europium-Cryptate-labeled anti-cAMP antibody. The specific HTRF signal is inversely proportional to the concentration of cAMP.
Compounds were added to individual well in 384 well-assay plates (Greiner #784076) using an Echo (LabCyte) dispenser from 10 mM stocks. Varying concentration of compounds were added to wells, and DMSO was used to normalize each well to a volume of 100 nL. A dose response curve of GLP-1(7-36)NH2 (Bachem H-6795) was included in each run. 5 μL of cAMP concentration response standards are applied in specified wells in the assay plates. Cryo-preserved cells are thawed and resuspended in assay buffer pre-heated to 37° C. (20 mM 2-[4-(2-hydroxyethyl)piperazin-1-yl]ethanesulfonic acid (HEPES) pH 7.4, lx Hank's Balanced Salt Solution (HBSS, Life Technologies #14065) supplemented with 0.1% (w/v) bovine serum albumin (Sigma, A-7030)). Cells were centrifuged at 250*g for 5 min at rt, and resuspended in room tempered assay buffer to a final density of 0.16*10^6 cell/mL, to deliver 800 cells/well. 5 μL of assay buffer with 1 mM 3-isobutyl-1-methylxanthin (IBMX; Sigma cat I-7018) was dispensed per well in assay plates using a multidrop combi (Thermo Scientific) subsequently 5 μL of cell suspension was distributed to relevant wells in the assay using a multidrop dispenser. Assay plates were incubated 20 min at rt.
Detection reagents, Europium-Cryptate-labeled anti-cAMP antibody and cAMP labeled with the dye d2, are diluted in lysis buffer, provided by the manufacturer. 5 μL of each detection reagent is supplemented to each assay well using a multidrop dispenser. Assay plates are incubated in the dark for at least one h. The HTRF signal is measured using the HTRF module (excitation: 337 nm, emission A: 665 nm and emission B: 620 nm) in Pherastar FSX (BMG Labtech).
Raw data were converted to pM cAMP using the cAMP standard curve included in each run. Converted data were further analyzed in Genedata Screener (Genedata) and EC50 determinations were made from agonist dose-response curves analyzed with a curve fitting program using a 4-parameter logistic dose response equation (Equation y=A+((B−A)/1+((C/x)^D))) where A is no stimulation, B is full stimulation, C is the EC50 and D is the Hill slope). The percent effect was determined relative to a saturating concentration of a full GLP-1R agonist (GLP-1(7-36)NH2 has 100% effect in this assay setup).

T1 sequence (P43220 24-463): as the sequence (P43220 24-463 L260F) above, with F237L counted along it

For the compound `Cn1ccc(Cn2c(CN3CCN(c4cccc(OCc5ccc(C#N)cc5F)n4)[C@@H]4CC[C@@H]43)nc3ccc(C(=O)O)cc32)n1` (racemic) [Example 1, rac-2-(((1R,6S)-5-(6-((4-Cyano-2-fluorobenzyl)oxy)pyridin-2-yl)-2,5-diazabicyclo[4.2.0]octan-2-yl)methyl)-1-((1-methyl-1H-pyrazol-3-yl)methyl)-1H-benzo[d]imidazole-6-carboxylic acid], the concentration giving a half-maximal response (EC50) on GLP-1R was found to be 280 nM; at human GLP-1R receptor, 130 nM.

On to `CC(C)(C)OCCn1c(CN2CCN(c3cccc(OCc4ccc(C#N)cc4F)n3)[C@@H]3CC[C@@H]32)nc2ccc(C(=O)O)cc21` (racemic) [Example 10, rac-1-(2-(tert-Butoxy)ethyl)-2-(((1R,6S)-5-(6-((4-cyano-2-fluorobenzyl)oxy)pyridin-2-yl)-2,5-diazabicyclo[4.2.0]octan-2-yl)methyl)-1H-benzo[d]imidazole-6-carboxylic acid], for which, at human GLP-1R receptor, it took 370 nM to reach a half-maximal effect (EC50).

As for `CCCCOCCn1c(CN2CCN(c3cccc(OCc4ccc(C#N)cc4F)n3)[C@@H]3CC[C@@H]32)nc2ccc(C(=O)O)cc21` (racemic) [Example 11, rac-1-(2-Butoxyethyl)-2-(((1R,6S)-5-(6-((4-cyano-2-fluorobenzyl)oxy)pyridin-2-yl)-2,5-diazabicyclo[4.2.0]octan-2-yl)methyl)-1H-benzo[d]imidazole-6-carboxylic acid], on human GLP-1R receptor, the EC50 was 150 nM.

With `Cc1cc(Cn2c(CN3CCN(c4cccc(OCc5ccc(C#N)cc5F)n4)[C@@H]4CC[C@@H]43)nc3ccc(C(=O)O)cc32)no1` (racemic) [Example 13, rac-2-(((1R,6S)-5-(6-((4-Cyano-2-fluorobenzyl)oxy)pyridin-2-yl)-2,5-diazabicyclo[4.2.0]octan-2-yl)methyl)-1-((5-methylisoxazol-3-yl)methyl)-1H-benzo[d]imidazole-6-carboxylic acid], the EC50 on GLP-1R was determined as 100 nM; on human GLP-1R receptor, 110 nM.

On to `Cc1ccnc(Cn2c(CN3CCN(c4cccc(OCc5ccc(C#N)cc5F)n4)[C@@H]4CC[C@@H]43)nc3ccc(C(=O)O)cc32)c1` (racemic) [Example 14, rac-2-(((1R,6S)-5-(6-((4-Cyano-2-fluorobenzyl)oxy)pyridin-2-yl)-2,5-diazabicyclo[4.2.0]octan-2-yl)methyl)-1-((4-methylpyridin-2-yl)methyl)-1H-benzo[d]imidazole-6-carboxylic acid], for which the EC50 on GLP-1R was 2800 nM; on human GLP-1R receptor it was 400 nM.

Turning to `O=C(O)c1ccc2nc(CN3CCN(c4cccc(OCc5ccc(Cl)cc5F)n4)[C@@H]4COC[C@@H]43)n(C[C@@H]3CCO3)c2c1` (racemic) [Example 15, 2-(((4aRS,7aSR)-4-(6-((4-Chloro-2-fluorobenzyl)oxy)pyridin-2-yl)hexahydrofuro[3,4-b]pyrazin-1(2H)-yl)methyl)-1-(((S)-oxetan-2-yl)methyl)-1H-benzo[d]imidazole-6-carboxylic acid], the results for the EC50 at GLP-1R and at human GLP-1R receptor were 14 nM and 3.3 nM, respectively.

Regarding `N#Cc1ccc(COc2cccc(N3CCN(Cc4nc5ccc(C(=O)O)cc5n4C[C@@H]4CCO4)[C@H]4CC[C@H]43)n2)c(F)c1` (single isomer, unassigned) [Example 2a, 2-(((1R*,6S*)-5-(6-((4-Cyano-2-fluorobenzyl)oxy)pyridin-2-yl)-2,5-diazabicyclo[4.2.0]octan-2-yl)methyl)-1-(((S)-oxetan-2-yl)methyl)-1H-benzo[d]imidazole-6-carboxylic acid], the EC50 at GLP-1R was determined as 4.1 nM; on human GLP-1R receptor, 1.2 nM.

On to `N#Cc1ccc(COc2cccc(N3CCN(Cc4nc5ccc(C(=O)O)cc5n4C[C@@H]4CCO4)[C@H]4CC[C@H]43)n2)c(F)c1` (single isomer, unassigned) [Example 2b, 2-(((1R*,6S*)-5-(6-((4-Cyano-2-fluorobenzyl)oxy)pyridin-2-yl)-2,5-diazabicyclo[4.2.0]octan-2-yl)methyl)-1-(((S)-oxetan-2-yl)methyl)-1H-benzo[d]imidazole-6-carboxylic acid], for which the results for the concentration for a half-maximal effect (EC50) on GLP-1R and at human GLP-1R receptor were 32 nM and 17 nM, respectively.

As for `N#Cc1ccc(COc2cccc(N3CCN(Cc4nc5c(F)cc(C(=O)O)cc5n4C[C@@H]4CCO4)[C@H]4CC[C@@H]43)n2)c(F)c1` (single isomer, unassigned) [Example 3a, 2-(((1R*,6R*)-5-(6-((4-Cyano-2-fluorobenzyl)oxy)pyridin-2-yl)-2,5-diazabicyclo[4.2.0]octan-2-yl)methyl)-4-fluoro-1-(((S)-oxetan-2-yl)methyl)-1H-benzo[d]imidazole-6-carboxylic acid], the figures for the EC50 at GLP-1R and at human GLP-1R receptor were 13 nM and 23 nM, respectively.

Take `COc1cc(C(=O)O)cc2c1nc(CN1CCN(c3cccc(OCc4ccc(Cl)cc4F)n3)[C@H]3CC[C@@H]31)n2C[C@@H]1CCO1` (single isomer, unassigned) [Example 5a, 2-(((1R*,6R*)-5-(6-((4-Chloro-2-fluorobenzyl)oxy)pyridin-2-yl)-2,5-diazabicyclo[4.2.0]octan-2-yl)methyl)-4-methoxy-1-(((S)-oxetan-2-yl)methyl)-1H-benzo[d]imidazole-6-carboxylic acid]: the EC50 on GLP-1R is 4 nM; on human GLP-1R receptor, 6.4 nM.

Consider `N#Cc1ccc(COc2cccc(N3CCN(Cc4nc5c(Cl)cc(C(=O)O)cc5n4C[C@@H]4CCO4)[C@H]4CC[C@H]43)n2)c(F)c1` (single isomer, unassigned) [Example 6b], for which the EC50 was 57 nM at GLP-1R and 95 nM at human GLP-1R receptor.

On human GLP-1R receptor, `N#Cc1ccc(COc2cccc(N3CCN(Cc4nc5cc(Cl)c(C(=O)O)cc5n4C[C@@H]4CCO4)[C@H]4CC[C@H]43)n2)c(F)c1` (single isomer, unassigned) [Example 7c] had an EC50 of 250 nM.

`CCn1cncc1Cn1c(CN2CCN(c3cccc(OCc4ccc(Cl)cc4F)n3)[C@H]3CC[C@@H]32)nc2c(OC)cc(C(=O)O)cc21` (single isomer, unassigned) [Example 12a]: the 50% effective concentration (EC50) at human GLP-1R receptor came to 2.2 nM.

As a reminder, the EC50 is the concentration needed to bring the measured effect to its halfway point. A higher EC50 goes with lower potency in that assay.
